Patent publication US10066270B2, “Methods and kits used in classifying adrenocortical carcinoma” (THE TRANSLATIONAL GENOMICS RESEARCH INSTITUTE, priority 2010, dated 2018)

Columns and labels:
PTTG1 [1] = assay: PTTG1 expression in H259R ACC cell line, relative to beta-actin; assay type: cell-based
Text: FIG. 7 depicts the effect of vorinostat on the ACC cell line H259R.

PTTG1 [2] = assay: PTTG1 expression in SW-13 ACC cell line, relative to beta-actin; assay type: cell-based
Text: FIG. 6 depicts the effect of vorinostat on the ACC cell line SW-13.

adrenocortical carcinoma = conditions: ACC patients; cited from earlier work

SMILES | effect on PTTG1 expression (PTTG1 [1]) | effect on PTTG1 expression (PTTG1 [2]) | patients showing a response (adrenocortical carcinoma) | side effects (adrenocortical carcinoma)
O=C(CCCCCCC(=O)Nc1ccccc1)NO [Vorinostat] | reduces PTTG1 expression | reduces PTTG1 expression | – | –
Clc1ccc(C(c2ccccc2Cl)C(Cl)Cl)cc1 (stereo not shown) [mitotane] | – | – | approximately 22% | severe, dose limiting side effects
